The target in this assay is T1, Chemerin-like receptor 1 (Homo sapiens, UniProt Q99788).
T1 sequence (Q99788 whole entry): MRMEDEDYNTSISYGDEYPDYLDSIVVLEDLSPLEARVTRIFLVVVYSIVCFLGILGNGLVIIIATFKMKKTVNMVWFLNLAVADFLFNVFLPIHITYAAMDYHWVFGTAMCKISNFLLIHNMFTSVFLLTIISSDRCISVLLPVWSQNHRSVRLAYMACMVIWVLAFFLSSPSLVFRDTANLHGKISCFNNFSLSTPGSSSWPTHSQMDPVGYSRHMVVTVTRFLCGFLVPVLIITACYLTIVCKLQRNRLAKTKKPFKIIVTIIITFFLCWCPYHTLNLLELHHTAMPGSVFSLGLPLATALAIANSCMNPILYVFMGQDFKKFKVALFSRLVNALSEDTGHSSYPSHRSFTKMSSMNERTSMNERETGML
In words: Displacement of [125I]-chemerin from ChemR23 (unknown origin) transfected in mouse BaF3 cells after 3 hrs by scintillation counting method. The format is cell-based. On the technique in general: Loss of bound radioactivity is the signal in a displacement assay; it reports binding, not function.
A word on the IC50: it is the concentration needed to halve the response being measured. A lower IC50 goes with greater potency. `Cc1cccc(C)c1N1CC(C(=O)Nc2cc(C(F)(F)F)cc(C(F)(F)F)c2)(N(C)C)CC1=O` (centres undefined) yielded an IC50 of at most 30 nM.
The value for `Cc1cccc(C)c1N1CC(C(=O)Nc2cccc(C#N)c2)CC1=O` (centres undefined) was 300 to 6000 nM; that for `CCN(CC)C[C@@]1(C(=O)Nc2cc(C(F)(F)F)cc(C(F)(F)F)c2)CN(c2c(C)cccc2C)C(=O)[C@H]1C` was 300 to 6000 nM.
The value for `Cc1cccc(C)c1N1CC(C(=O)Nc2cc(C(F)(F)F)cc(C(F)(F)F)c2)(C2CCSCC2)CC1=O` (centres undefined) was at most 30 nM; that for `Cc1cccc(C)c1N1C[C@@](CN(C)C2CCC2)(C(=O)Nc2cc(OC(C)C)cc(C(F)(F)F)c2)[C@H](C)C1=O` was 30 to 300 nM; that for `Cc1cccc(C)c1N1C[C@](C(=O)Nc2cc(C(F)(F)F)cc(C(F)(F)F)c2)(N(C)C)CC1=O` was at most 30 nM.
For `CCN(CC(C)C)C[C@@]1(C(=O)Nc2cc(C(F)(F)F)cc(C(F)(F)F)c2)CN(c2c(C)cccc2C)C(=O)[C@H]1C`, the IC50 is at most 30 nM.
Regarding `Cc1cccc(C)c1N1C[C@](C)(C(=O)Nc2cc(C(F)(F)F)cc(C(F)(F)F)c2)[C@H](C)C1=O`, the IC50 was in the range of 30 to 300 nM.
In turn, `Cc1cccc(C)c1N1CC(C(=O)Nc2cc(C(F)(F)F)cc(C(F)(F)F)c2)(C2CCOCC2)CC1=O` (centres undefined) displayed an IC50 of at most 30 nM.
For the compound `CC(C)C1(C(=O)Nc2cc(C(F)(F)F)cc(C(F)(F)F)c2)CC(=O)N(c2ccccc2Cl)C1` (centres undefined), the half-maximal inhibitory concentration (IC50) lay within 30 to 300 nM.
Regarding `Cc1cccc(C)c1N1C[C@@](CN2CCC(F)(F)CC2)(C(=O)Nc2cc(Cl)cc(C(F)(F)F)c2)[C@H](C)C1=O`, the IC50 fell in the range of 30 to 300 nM.
Consider `Cc1cccc(C)c1N1C[C@@](CN(C)CC(F)(F)F)(C(=O)Nc2cc(C#N)cc(C(F)(F)F)c2)[C@H](C)C1=O`, for which the IC50 is at most 30 nM.
Compound `O=C(Nc1cc(C(F)(F)F)cc(C(F)(F)F)c1)C1CC(=O)N(c2ccccc2)C1` (centres undefined) yielded an IC50 of 300 to 6000 nM.
The result for `Cc1cccc(C)c1N1CC(C(=O)Nc2cc(C(F)(F)F)cc(C(F)(F)F)c2)(C2CCCC2)CC1=O` (centres undefined) reads at most 30 nM; that for `Cc1cccc(CO)c1N1CC(C(=O)Nc2cc(C(F)(F)F)cc(C(F)(F)F)c2)(C(C)C)CC1=O` (centres undefined), 30 to 300 nM.
Regarding `Cc1cccc(C)c1N1CC2(C(=O)Nc3cc(C(F)(F)F)cc(C(F)(F)F)c3)CC(F)(F)CC2C1=O` (centres undefined), the IC50 was at most 30 nM.
The result for `Cc1cccc(C)c1N1C[C@](C(=O)Nc2cc(OC(C)C)cc(C(F)(F)F)c2)(C(C)C)CC1=O` reads at most 30 nM.
The value for `Cc1cccc(C)c1N1CC(C(=O)Nc2cc(C(F)(F)F)cc(C(F)(F)F)c2)CC1=O` (centres undefined) was at most 30 nM; that for `Cc1cccc(C)c1N1C[C@@](CN2CCC2)(C(=O)Nc2cc(C(F)(F)F)cc(C(F)(F)F)c2)[C@H](C)C1=O` was 30 to 300 nM.
Compound `C=CCc1cccc(C)c1N1CC(C(=O)Nc2cc(C(F)(F)F)cc(C(F)(F)F)c2)(C(C)C)CC1=O` (centres undefined) yielded an IC50 of at most 30 nM.
Regarding `CC[C@@]1(C(=O)Nc2cc(CN3CCCC3)cc(C(F)(F)F)c2)CN(c2c(C)cccc2C)C(=O)[C@H]1C`, the IC50 fell in the range of 300 to 6000 nM.
The compound `Cc1cccc(C)c1N1CC(C(=O)Nc2ccc(Cl)c(Cl)c2)CC1=O` (centres undefined) gave an IC50 of 300 to 6000 nM.
The result for `Cc1cccc(C)c1N1CC(C(=O)Nc2cc(C(F)(F)F)cc(C(F)(F)F)c2)(C2=CCSCC2)CC1=O` (centres undefined) reads at most 30 nM; that for `CC[C@@]1(C(=O)Nc2cc(C(F)(F)F)cc(C(F)(F)F)c2)CN(c2c(C)cccc2C)C(=O)[C@H]1C`, 30 to 300 nM; that for `Cc1cccc(C)c1N1C[C@@](CN(C)C(C)C)(C(=O)Nc2cc(C3CC3)cc(C(F)(F)F)c2)[C@H](C)C1=O`, 30 to 300 nM.
As for `CCN(C)C[C@@]1(C(=O)Nc2cc(C(F)(F)F)cc(C(F)(F)F)c2)CN(c2c(C)cccc2C)C(=O)[C@H]1C`, the IC50 is at most 30 nM.
The result for `CC[C@@]1(C(=O)Nc2cc(OC(C)C)cc(C(F)(F)F)c2)CN(c2c(C)cccc2C)C(=O)[C@H]1C` reads at most 30 nM; that for `Cc1cccc(Br)c1N1CC(C(=O)Nc2cccc(C(F)(F)F)c2)CC1=O` (centres undefined), 300 to 6000 nM; that for `CC[C@@]1(C(=O)Nc2cc(C(F)(F)F)cc(C(F)(F)F)c2)CN(c2c(C)cccc2C)C(=O)[C@H]1OC`, at most 30 nM.
`COCC1(C(=O)Nc2cc(C(F)(F)F)cc(C(F)(F)F)c2)CC(=O)N(c2c(C)cccc2C)C1` (centres undefined) gave an IC50 of at most 30 nM.
Compound `CC[C@@]1(C(=O)Nc2cc(C)cc(C(F)(F)F)c2)CN(c2c(C)cccc2C)C(=O)[C@H]1C` showed an IC50 of at most 30 nM.
The result for `CC[C@@]1(C(=O)Nc2cc(OC)cc(C(F)(F)F)c2)CN(c2c(C)cccc2C)C(=O)[C@H]1C` reads 30 to 300 nM; that for `Cc1cccc(C)c1N1C[C@@](CN(C)C2CCC2)(C(=O)Nc2cc(C(F)(F)F)cc(C(F)(F)F)c2)[C@H](C)C1=O`, at most 30 nM; that for `Cc1cc(F)cc(C)c1N1CC(C(=O)Nc2cc(C(F)(F)F)cc(C(F)(F)F)c2)CC1=O` (centres undefined), 30 to 300 nM.
The value for `COc1cccc(C)c1N1CC(C(=O)Nc2cc(C(F)(F)F)cc(C(F)(F)F)c2)(C(C)C)CC1=O` (centres undefined) was 300 to 6000 nM; that for `Cc1cccc(C)c1N1C[C@@](CN2CCC(F)(F)CC2)(C(=O)Nc2cc(F)cc(C(F)(F)F)c2)[C@H](C)C1=O` was 30 to 300 nM; that for `CCN(CC)C[C@@]1(C(=O)Nc2cc(C3CC3)cc(C(F)(F)F)c2)CN(c2c(C)cccc2C)C(=O)[C@H]1C` was at most 30 nM.
For the compound `COc1ccccc1N1CC(C(=O)Nc2cc(C3CC3)cc(C(F)(F)F)c2)(C(C)C)CC1=O` (centres undefined), the 50% inhibitory concentration (IC50) fell in the range of 300 to 6000 nM.
The value for `CCN(C)C[C@@]1(C(=O)Nc2cc(C3CC3)cc(C(F)(F)F)c2)CN(c2c(C)cccc2C)C(=O)[C@H]1C` was 30 to 300 nM.
The result for `CC[C@@]1(C(=O)Nc2cc(OC3CCCC3)cc(C(F)(F)F)c2)CN(c2c(C)cccc2C)C(=O)[C@H]1C` reads at most 30 nM; that for `Cc1cccc(C)c1N1CC(C(=O)Nc2cc(C(F)(F)F)cc(C(F)(F)F)c2)(N2CCOCC2)CC1=O` (centres undefined), at most 30 nM.
Take `CCc1cccc(C)c1N1CC(C(=O)Nc2ccc(OC)c(C(F)(F)F)c2)CC1=O` (centres undefined): the IC50 fell in the range of 300 to 6000 nM.
The value for `CCC1(C(=O)Nc2cc(C(F)(F)F)cc(C(F)(F)F)c2)CC(=O)N(c2c(C)cccc2C)C1` (centres undefined) was at most 30 nM; that for `Cc1cccc(C)c1N1C[C@@](CN(C)C(C)C)(C(=O)Nc2cc(C(F)(F)F)cc(C(F)(F)F)c2)[C@H](C)C1=O` was at most 30 nM; that for `CCCN(CC)C[C@@]1(C(=O)Nc2cc(C(F)(F)F)cc(C(F)(F)F)c2)CN(c2c(C)cccc2C)C(=O)[C@H]1C` was at most 30 nM.
The value for `Cc1cccc(C)c1N1CC(C(=O)Nc2ccc(Cl)c(C(F)(F)F)c2)CC1=O` (centres undefined) was 300 to 6000 nM; that for `Cc1cccc(CCN2CCOCC2)c1N1CC(C(=O)Nc2cc(C(F)(F)F)cc(C(F)(F)F)c2)(C(C)C)CC1=O` (centres undefined) was 300 to 6000 nM.
Compound `CC[C@@H]1C(=O)N(c2c(C)cccc2C)C[C@@]1(CC)C(=O)Nc1cc(C(F)(F)F)cc(C(F)(F)F)c1` showed an IC50 of at most 30 nM.
The result for `Cc1cccc(C)c1N1CC(C)(C(=O)Nc2cc(C(F)(F)F)cc(C(F)(F)F)c2)CC1=O` (centres undefined) reads at most 30 nM; that for `Cc1cccc(C)c1N1C[C@@](CN(C)CC2CC2)(C(=O)Nc2cc(C(F)(F)F)cc(C(F)(F)F)c2)[C@H](C)C1=O`, at most 30 nM.
For `Cc1cccc(C)c1N1CC(C(=O)Nc2cc(C3CC3)cc(C(F)(F)F)c2)CC1=O` (centres undefined), the half-inhibitory concentration (IC50) lay within 300 to 6000 nM.
The value for `CC[C@@]1(C(=O)Nc2cc(C3CC3)cc(C(F)(F)F)c2)CN(c2c(C)cccc2C)C(=O)[C@H]1C` was at most 30 nM.
`Cc1cccc(C)c1N1C[C@@](CN(C)CC(C)C)(C(=O)Nc2cc(OC(C)C)cc(C(F)(F)F)c2)[C@H](C)C1=O` gave a half-inhibitory concentration (IC50) of at most 30 nM.
`Cc1cccc(C)c1N1CC2(C(=O)Nc3cc(C(F)(F)F)cc(C(F)(F)F)c3)CC=CCC2C1=O` (centres undefined) registered a half-maximal inhibitory concentration (IC50) of at most 30 nM.
For the compound `Cc1cccc(CN2CCOCC2)c1N1CC(C(=O)Nc2cc(C(F)(F)F)cc(C(F)(F)F)c2)(C(C)C)CC1=O` (centres undefined), the IC50 lay in the range of 30 to 300 nM.
The compound `Cc1cccc(C)c1N1CC(C(=O)Nc2cc(C#N)cc(C(F)(F)F)c2)CC1=O` (centres undefined) yielded a half-maximal inhibitory concentration (IC50) of 30 to 300 nM.
Compound `Cc1cccc(C)c1N1CC(CC(C)C)(C(=O)Nc2cc(C(F)(F)F)cc(C(F)(F)F)c2)CC1=O` (centres undefined) displayed an IC50 of at most 30 nM.
The value for `CC[C@@]1(C(=O)Nc2cc(F)cc(C(F)(F)F)c2)CN(c2c(C)cccc2C)C(=O)[C@H]1C` was 30 to 300 nM; that for `Cc1cccc(C)c1N1C[C@@](CN(CCF)CC(C)C)(C(=O)Nc2cc(C(F)(F)F)cc(C(F)(F)F)c2)[C@H](C)C1=O` was at most 30 nM; that for `Cc1cccc(C)c1N1C[C@@](CN(C)C(C)(C)CO)(C(=O)Nc2cc(C(F)(F)F)cc(C(F)(F)F)c2)[C@H](C)C1=O` was 30 to 300 nM.
Consider `Cc1cccc(N2CC(C(=O)Nc3cc(C(F)(F)F)cc(C(F)(F)F)c3)CC2=O)c1C` (centres undefined), for which the IC50 lay within 30 to 300 nM.
As to `Cc1cccc(C)c1N1CC(C(=O)Nc2cc(N3CCOCC3)cc(C(F)(F)F)c2)CC1=O` (centres undefined), the IC50 is 30 to 300 nM.
As to `Cc1cccc(C)c1N1C[C@@](CN2CCOC[C@H]2C)(C(=O)Nc2cc(C(F)(F)F)cc(C(F)(F)F)c2)[C@H](C)C1=O`, the half-inhibitory concentration (IC50) lay within 30 to 300 nM.
The result for `Cc1cccc(C)c1N1CC(C(=O)Nc2cc(Cl)cc(C(F)(F)F)c2)CC1=O` (centres undefined) reads 30 to 300 nM; that for `Cc1cccc(C)c1N1C[C@@](CN(C)C)(C(=O)Nc2cc(C(F)(F)F)cc(C(F)(F)F)c2)[C@H](C)C1=O`, at most 30 nM; that for `Cc1cccc(F)c1N1CC(C(=O)Nc2cc(C(F)(F)F)cc(C(F)(F)F)c2)(C(C)C)CC1=O` (centres undefined), 30 to 300 nM.
As to `CCC1(C(=O)Nc2cccc(C(F)(F)F)c2)CC(=O)N(c2c(C)cccc2C)C1` (centres undefined), the IC50 was 300 to 6000 nM.
As to `COC1CCN(C[C@@]2(C(=O)Nc3cc(C#N)cc(C(F)(F)F)c3)CN(c3c(C)cccc3C)C(=O)[C@H]2C)CC1`, the IC50 was 30 to 300 nM.
With `COCCN(C)C[C@@]1(C(=O)Nc2cc(C#N)cc(C(F)(F)F)c2)CN(c2c(C)cccc2C)C(=O)[C@H]1C`, the IC50 was in the range of 30 to 300 nM.

For the origin of these results see ChEMBL document CHEMBL3879908, “Pyrrolidinone carboxamide derivatives” (2014).
